Description: Disclosed antimicrobial cleansing composition includes 0.1 to 100 ppm silver (I) compound. […] More particularly, silver ion solubility [Ag+], a value given in mol/L may be calculated using the formula: [Ag+]=(Ksp·x)^(1/(x+1))

Silver Ion Solubility [Ag+]: 13 µM
Compound: [Cl][Ag] [Silver chloride]

Reference: US9994691B2, “Antimicrobial cleansing composition” (Conopco, Inc., d/b/a UNILEVER, priority 2014, dated 2018)
